From ChEMBL document CHEMBL4011590, “Structure-activity relationship studies on 3,5-dinitrophenyl tetrazoles as antitubercular agents” (Eur J Med Chem, 2017)
Values after ≈ are worked out from the molar mass of the structure shown.

Tests used:
Type in all cases: functional
Escherichia coli [1] = assay: Antibacterial activity against Escherichia coli ATCC 8739 after 24 hrs by broth microdilution method
Klebsiella pneumoniae [2] = assay: Antibacterial activity against Klebsiella pneumoniae HK11750/08 after 24 hrs by broth microdilution method
Klebsiella pneumoniae [3] = assay: Antibacterial activity against extended spectrum beta-lactamase producing Klebsiella pneumoniae HK14368/08 after 24 hrs by broth microdilution method
Pseudomonas aeruginosa [4] = assay: Antibacterial activity against Pseudomonas aeruginosa ATCC 9027 after 24 hrs by broth microdilution method
[5] = tested on: Mycobacterium tuberculosis; assay: Antimycobacterial activity against Mycobacterium tuberculosis H37Rv CNCTC My 331/88 after 14 days by micromethod; conditions: H37Rv CNCTC My 331/88, 336 h
[6] = tested on: Mycobacterium tuberculosis; assay: Antimycobacterial activity against Mycobacterium tuberculosis H37Rv CNCTC My 331/88 after 21 days by micromethod; conditions: H37Rv CNCTC My 331/88, 504 h
Mycobacterium avium [7] = assay: Antimycobacterial activity against Mycobacterium avium CNCTC My 330/80 after 14 days by micromethod; conditions: CNCTC My 330/80, 336 h
Mycobacterium avium [8] = assay: Antimycobacterial activity against Mycobacterium avium CNCTC My 330/80 after 21 days by micromethod; conditions: CNCTC My 330/80, 504 h
Mycobacterium kansasii [9] = assay: Antimycobacterial activity against Mycobacterium kansasii CNCTC My 235/80 after 7 days by micromethod; conditions: CNCTC My 235/80, 168 h
Mycobacterium kansasii [10] = assay: Antimycobacterial activity against Mycobacterium kansasii CNCTC My 235/80 after 14 days by micromethod; conditions: CNCTC My 235/80, 336 h
Mycobacterium kansasii [11] = assay: Antimycobacterial activity against Mycobacterium kansasii CNCTC My 235/80 after 21 days by micromethod; conditions: CNCTC My 235/80, 504 h
Mycobacterium kansasii [12] = assay: Antimycobacterial activity against Mycobacterium kansasii isolate 6509/96 after 7 days by micromethod; conditions: isolate 6509/96, 168 h
Mycobacterium kansasii [13] = assay: Antimycobacterial activity against Mycobacterium kansasii isolate 6509/96 after 14 days by micromethod; conditions: isolate 6509/96, 336 h
Mycobacterium kansasii [14] = assay: Antimycobacterial activity against Mycobacterium kansasii isolate 6509/96 after 21 days by micromethod; conditions: isolate 6509/96, 504 h
Staphylococcus aureus [15] = assay: Antibacterial activity against Staphylococcus aureus ATCC 6538 after 24 hrs by broth microdilution method; conditions: ATCC 6538, 24 h
Staphylococcus aureus [16] = assay: Antibacterial activity against Staphylococcus aureus ATCC 6538 after 48 hrs by broth microdilution method; conditions: ATCC 6538, 48 h
Staphylococcus aureus [17] = assay: Antibacterial activity against methicillin-resistant Staphylococcus aureus HK5996/08 after 24 hrs by broth microdilution method; conditions: HK5996/08, 24 h
Staphylococcus aureus [18] = assay: Antibacterial activity against methicillin-resistant Staphylococcus aureus HK5996/08 after 48 hrs by broth microdilution method; conditions: HK5996/08, 48 h
[19] = tested on: Staphylococcus epidermidis; assay: Antibacterial activity against Staphylococcus epidermidis HK6966/08 after 24 hrs by broth microdilution method; conditions: HK6966/08, 24 h
[20] = tested on: Staphylococcus epidermidis; assay: Antibacterial activity against Staphylococcus epidermidis HK6966/08 after 48 hrs by broth microdilution method; conditions: HK6966/08, 48 h
Enterococcus sp. [21] = assay: Antibacterial activity against Enterococcus sp. HK14365/08 after 24 hrs by broth microdilution method; conditions: HK14365/08, 24 h
Enterococcus sp. [22] = assay: Antibacterial activity against Enterococcus sp. HK14365/08 after 48 hrs by broth microdilution method; conditions: HK14365/08, 48 h
Escherichia coli [23] = assay: Antibacterial activity against Escherichia coli ATCC 8739 after 48 hrs by broth microdilution method; conditions: ATCC 8739, 48 h
Klebsiella pneumoniae [24] = assay: Antibacterial activity against Klebsiella pneumoniae HK11750/08 after 48 hrs by broth microdilution method; conditions: HK11750/08, 48 h
Klebsiella pneumoniae [25] = assay: Antibacterial activity against extended spectrum beta-lactamase producing Klebsiella pneumoniae HK14368/08 after 48 hrs by broth microdilution method; conditions: HK14368/08, 48 h
Pseudomonas aeruginosa [26] = assay: Antibacterial activity against Pseudomonas aeruginosa ATCC 9027 after 48 hrs by broth microdilution method; conditions: ATCC 9027, 48 h
Candida albicans [27] = assay: Antifungal activity against Candida albicans ATCC 44859 after 24 hrs by broth microdilution method; conditions: ATCC 44859, 24 h
Candida albicans [28] = assay: Antifungal activity against Candida albicans ATCC 44859 after 48 hrs by broth microdilution method; conditions: ATCC 44859, 48 h
Candida tropicalis [29] = assay: Antifungal activity against Candida tropicalis 156 after 24 hrs by broth microdilution method; conditions: Candida tropicalis, 156, 24 h
Candida tropicalis [30] = assay: Antifungal activity against Candida tropicalis 156 after 48 hrs by broth microdilution method; conditions: Candida tropicalis, 156, 48 h
Pichia kudriavzevii [31] = assay: Antifungal activity against Candida krusei E28 after 24 hrs by broth microdilution method; conditions: E28, 24 h
Pichia kudriavzevii [32] = assay: Antifungal activity against Candida krusei E28 after 48 hrs by broth microdilution method; conditions: E28, 48 h
Nakaseomyces glabratus [33] = assay: Antifungal activity against Candida glabrata 20/I after 24 hrs by broth microdilution method
Nakaseomyces glabratus [34] = assay: Antifungal activity against Candida glabrata 20/I after 48 hrs by broth microdilution method
Trichosporon asahii [35] = assay: Antifungal activity against Trichosporon asahii 1188 after 24 hrs by broth microdilution method; conditions: Trichosporon asahii, 1188, 24 h
Trichosporon asahii [36] = assay: Antifungal activity against Trichosporon asahii 1188 after 48 hrs by broth microdilution method; conditions: Trichosporon asahii, 1188, 48 h
Aspergillus fumigatus [37] = assay: Antifungal activity against Aspergillus fumigatus 231 after 24 hrs by broth microdilution method; conditions: Aspergillus fumigatus, 231, 24 h
Aspergillus fumigatus [38] = assay: Antifungal activity against Aspergillus fumigatus 231 after 48 hrs by broth microdilution method; conditions: Aspergillus fumigatus, 231, 48 h
Lichtheimia corymbifera [39] = assay: Antifungal activity against Absidia corymbifera 272 after 24 hrs by broth microdilution method; conditions: Lichtheimia corymbifera, 272, 24 h
Lichtheimia corymbifera [40] = assay: Antifungal activity against Absidia corymbifera 272 after 48 hrs by broth microdilution method; conditions: Lichtheimia corymbifera, 272, 48 h
[41] = tested on: Trichophyton mentagrophytes; assay: Antifungal activity against Trichophyton mentagrophytes 445 after 72 hrs by broth microdilution method; conditions: Trichophyton mentagrophytes, 445, 72 h
[42] = tested on: Trichophyton mentagrophytes; assay: Antifungal activity against Trichophyton mentagrophytes 445 after 120 hrs by broth microdilution method; conditions: Trichophyton mentagrophytes, 445, 120 h

Molecule: GENTAMICIN
- MIC (Escherichia coli [1]): 0.26 µM
- MIC (Klebsiella pneumoniae [2]): 0.26 µM
- MIC (Klebsiella pneumoniae [3]): 0.26 µM
- MIC (Pseudomonas aeruginosa [4]): 1 µM

Molecule: O=[N+]([O-])c1cc(-c2nnn(CSc3nnnn3Cc3ccccc3)n2)cc([N+](=O)[O-])c1
- MIC99 [5]: 0.125 µM (≈ 0.0551 µg/mL)
- MIC99 [6]: 0.125 µM (≈ 0.0551 µg/mL)
- MIC99 (Mycobacterium avium [7]): 16 µM (≈ 7.05 µg/mL)
- MIC99 (Mycobacterium avium [8]): 32 µM (≈ 14.1 µg/mL)
- MIC99 (Mycobacterium kansasii [9]): 2 µM (≈ 0.881 µg/mL)
- MIC99 (Mycobacterium kansasii [10]): 4 µM (≈ 1.76 µg/mL)
- MIC99 (Mycobacterium kansasii [11]): 4 µM (≈ 1.76 µg/mL)
- MIC99 (Mycobacterium kansasii [12]): 2 µM (≈ 0.881 µg/mL)
- MIC99 (Mycobacterium kansasii [13]): 4 µM (≈ 1.76 µg/mL)
- MIC99 (Mycobacterium kansasii [14]): 4 µM (≈ 1.76 µg/mL)
- MIC (Staphylococcus aureus [15]): > 125 µM
- MIC (Staphylococcus aureus [16]): > 125 µM
- MIC (Staphylococcus aureus [17]): > 125 µM
- MIC (Staphylococcus aureus [18]): > 125 µM
- MIC [19]: > 125 µM
- MIC [20]: > 125 µM
- MIC (Enterococcus sp. [21]): > 125 µM
- MIC (Enterococcus sp. [22]): > 125 µM
- MIC (Escherichia coli [1]; ATCC 8739, 24 h): > 125 µM
- MIC (Escherichia coli [23]): > 125 µM
- MIC (Klebsiella pneumoniae [2]; HK11750/08, 24 h): > 125 µM
- MIC (Klebsiella pneumoniae [24]): > 125 µM
- MIC (Klebsiella pneumoniae [3]; HK14368/08, 24 h): > 125 µM
- MIC (Klebsiella pneumoniae [25]): > 125 µM
- MIC (Pseudomonas aeruginosa [4]; ATCC 9027, 24 h): > 125 µM
- MIC (Pseudomonas aeruginosa [26]): > 125 µM
- MIC (Candida albicans [27]): > 125 µM
- MIC (Candida albicans [28]): > 125 µM
- MIC (Candida tropicalis [29]): > 125 µM
- MIC (Candida tropicalis [30]): > 125 µM
- MIC (Pichia kudriavzevii [31]): > 125 µM
- MIC (Pichia kudriavzevii [32]): > 125 µM
- MIC (Nakaseomyces glabratus [33]): > 125 µM
- MIC (Nakaseomyces glabratus [34]): > 125 µM
- MIC (Trichosporon asahii [35]): > 125 µM
- MIC (Trichosporon asahii [36]): > 125 µM
- MIC (Aspergillus fumigatus [37]): > 125 µM
- MIC (Aspergillus fumigatus [38]): > 125 µM
- MIC (Lichtheimia corymbifera [39]): > 125 µM
- MIC (Lichtheimia corymbifera [40]): > 125 µM
- MIC [41]: > 125 µM
- MIC [42]: > 125 µM

Molecule: OC(Cn1cncn1)(Cn1cncn1)c1ccc(F)cc1F [FLUCONAZOLE]
- MIC (Candida albicans [27]): 0.82 µM (≈ 0.251 µg/mL)
- MIC (Candida tropicalis [29]): 1.6 µM (≈ 0.49 µg/mL)
- MIC (Pichia kudriavzevii [31]): 105 µM (≈ 32.2 µg/mL)
- MIC (Trichosporon asahii [35]): 210 µM (≈ 64.3 µg/mL)
- MIC (Aspergillus fumigatus [37]): > 500 µM
- MIC (Lichtheimia corymbifera [39]): > 500 µM
- MIC [41]: 105 µM (≈ 32.2 µg/mL)

Molecule: CN[C@H](CC(C)C)C(=O)N[C@H]1C(=O)N[C@@H](CC(N)=O)C(=O)N[C@H]2C(=O)N[C@H]3C(=O)N[C@H](C(=O)N[C@H](C(=O)O)c4cc(O)cc(O)c4-c4cc3ccc4O)[C@H](O)c3ccc(c(Cl)c3)Oc3cc2cc(c3O[C@@H]2O[C@H](CO)[C@@H](O)[C@H](O)[C@H]2O[C@H]2C[C@](C)(N)[C@H](O)[C@H](C)O2)Oc2ccc(cc2Cl)[C@H]1O [VANCOMYCIN]
- MIC (Staphylococcus aureus [15]): 0.35 µM (≈ 0.507 µg/mL)
- MIC (Staphylococcus aureus [17]): 0.35 µM (≈ 0.507 µg/mL)
- MIC [19]: 0.35 µM (≈ 0.507 µg/mL)
- MIC (Enterococcus sp. [21]): 0.7 µM (≈ 1.01 µg/mL)
